This is an account of results in patent US10064975B2, “Method for coating skin abrasion, laceration, burn or oedema after surgery” (Lilac Laboratory Co., Ltd., priority 2014, dated 2018).

The nature of this data set: pH. In kind it is physicochemical. To be noted: less affected by the concentration. The source says:
According to the present invention, an active ingredient, aluminium chloride hydrate, is preferably used at the practical range of 0.005% to 20% by weight in view of the strong acidity thereof and tissue irritating nature. The pH of aluminium chloride is less affected by the concentration and is as low as around pH 1.9. Aluminium chloride has strong tissue irritating nature, and thus is more preferably adjusted to pH of 2.8 to 6.0 in practical use.
In the present Example, in order to reduce irritating nature at affected areas due to the acidity of aluminium chloride, 3.0% of the 10% sodium hydroxide solution was added to neutralise, the produced precipitate was removed by filtration and pH was adjusted to 3.9. […] Therefore, the 70% ethanol preparation was added as a fungicide.
In the present Example, in order to reduce irritating nature at affected areas due to the acidity of aluminium chloride, the solution was neutralised with sodium hydroxide and adjusted to pH 3.5, and the precipitate was removed by filtration.

On to `[Cl][Al]([Cl])[Cl]` [aluminium chloride], for which the “pH of aluminium chloride” value is listed as ~1.9.
